Measured values taken from patent publication US20100234278A1, “PROPHYLACTIC AND/OR THERAPEUTIC AGENTS FOR PERIPHERAL NEUROPATHY” (priority 2006, published 2010).
Entries after “also recorded” stand apart in the source; their conditions may differ.

Key:
sciatic nerve axons = assay: Histopathological evaluation of sciatic nerves (toluidine blue staining); type: in vivo, ICR mice
Method: ICR mice (male) were purchased at 5 weeks of age and handled for 1 week before use in the experiment. As an anticancer agent, taxotere (Taxotere injection, Aventis Pharma, 1V 80 mg 2 mL) was used. […] The vehicle serving as a control (0 mg/kg) was prepared in the same manner using Tween-80 and physiological saline for iv administration. On the other hand, recombinant human EPO under the trade name Epogin (Chugai Pharmaceutical Co., Ltd., Japan) was adjusted using a solution (containing […] NaCl, 0.125% histidine-HCl and 0.005% Tween 80 in 10 mmol/L phosphate buffer (pH 6.0)) and administered at 720 U/head/week. The administration schedule was as follows: […], once a week for 3 weeks (3 times in total on days 0, 7 and 14), while the vehicle and EPO (720 U/head) were each given sc (into the dorsal neck region) 3 hours before taxotere treatment. Muscle tissue was peeled off to expose sciatic nerves. Under this state, a glutaraldehyde fixing solution (stored on ice immediately before use) was added to immerse all the sciatic nerves. After incubation for 10 minutes, the sciatic nerves were isolated and gently shaken for 1 hour in a shaker containing a glutaraldehyde fixing solution. The sciatic nerves were then embedded in a standard manner into a resin for electron microscopic examination. Toluidine blue-stained sections were prepared and evaluated for the degree of axonal degeneration at three levels: none (−), mild (+) and moderate (++).

[1] = test system: taxotere-induced peripheral neuropathy model mice; assay: Evaluation of neurological symptoms in taxotere-induced peripheral neuropathy model; type: in vivo, ICR mice
Method: ICR mice (male) were purchased at 5 weeks of age and handled for 1 week before use in the experiment.
As an anticancer agent, taxotere (Taxotere injection, Aventis Pharma, 1V 80 mg 2 mL) was used.
Using the attached solution and physiological saline, taxotere was adjusted to a volume of about 0.15 ml per 10 g mouse body weight (45 mg/kg iv, 90 mg/kg ip). The vehicle serving as a control (0 mg/kg) was prepared in the same manner using Tween-80 and physiological saline for iv administration.
On the other hand, recombinant human EPO under the trade name Epogin (Chugai Pharmaceutical Co., Ltd., Japan) was adjusted using a solution (containing […] NaCl, 0.125% histidine-HCl and 0.005% Tween 80 in 10 mmol/L phosphate buffer (pH 6.0)) and administered at 720 U/head/week. The administration schedule was as follows: taxotere was given at 0 or 45 mg/kg iv (via the tail vein) or at 90 mg/kg ip, once a week for 3 weeks (3 times in total on days 0, 7 and 14), while the vehicle and EPO (720 U/head) were each given sc (into the dorsal neck region) 3 hours before taxotere treatment.
Continuous treatment with taxotere will induce typical hind leg crossing in mice when hanged by their tails. If the symptoms reach an advanced stage, the same crossing response will also occur in the forelegs, thereby leading to dysbasia. Such a symptom was used as an indicator to evaluate the mice as follows: 0=no symptom; 0.5=abnormal movement without clear flexion; 1=flexion in one hind leg; 2=hind leg flexion or extension lasting for 2 seconds or longer; 3=dysbasia. Scoring was accomplished by blind evaluation of symptoms.

[2] = test system: cisplatin-treated cancer patients; conditions: EPO-treated group (Mangiameli et al., 2002); cited from earlier work
[3] = test system: streptozotocin-induced diabetes model rats; conditions: streptozotocin-induced diabetes model rats (Bianchi et al., 2004); cited from earlier work
[4] = test system: DRG (dorsal root ganglia); conditions: caused by addition of HIV envelop glycoprotein gp120 (Keswanai et al., 2004); cited from earlier work
[5] = taxotere 90 mg/kg ip group (vehicle)

| Compound | Histological change of sciatic nerve axons, in words (sciatic nerve axons; groups receiving taxotere) | Degree of axonal degeneration: number of animals at mild (+) (sciatic nerve axons; [5]) | Degree of axonal degeneration: number of animals at moderate (++) (sciatic nerve axons; [5]) | Degree of axonal degeneration: number of animals at ± (sciatic nerve axons; [5]) | Time at which neurological symptoms developed after the treatment ([1]; taxotere 45 mg/kg iv once a week) | Time at which neurological symptoms developed after the treatment ([1]; taxotere 90 mg/kg ip once a week) | Neurological symptom scores [2] | Degeneration levels of sciatic nerve axons, range of the group (sciatic nerve axons; EPO group upon taxotere 90 mg/kg ip treatment) | Effect on axonal degeneration of sciatic nerves, in words (sciatic nerve axons; EPO versus vehicle, taxotere 90 mg/kg ip) | Pain [3] | Reduced nerve conduction velocity [3] | Cell loss in DRG [4] | Effect on neurological symptoms ([1]; neuropathy induced by taxotere 90 mg/kg ip, EPO 720 U/head sc, after 10 days (FIG. 2)) |
| --- | --- | --- | --- | --- | --- | --- | --- | --- | --- | --- | --- | --- | --- |
| CC(=O)O[C@@]12CO[C@@H]1C[C@H](O)[C@@]1(C)C(=O)[C@H](O)C3=C(C)[C@@H](OC(=O)[C@H](O)[C@@H](NC(=O)OC(C)(C)C)c4ccccc4)C[C@@](O)([C@@H](OC(=O)c4ccccc4)[C@H]21)C3(C)C [taxotere] | diameter reduction and deformation of axons, which were indicative of clear axonal degeneration | 1 | 3 | 3 | around 8 days | around 8 days |  |  |  |  |  |  |  |
| erythropoietin [EPO] |  |  |  |  |  |  | significantly improved | ± to mild (+) | tendency to alleviate neuropathy; also recorded: tended to suppress exacerbation | improves | improves reduced nerve conduction velocity | prevents cell loss in DRG | reduce significantly the neurological symptoms; also recorded: tended to suppress exacerbation of neurological symptoms |
